Measurements: ChEMBL document CHEMBL1201862, “PubChem BioAssay data set” (2004)
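96-well plates; 48 h exposure; 5 concentrations. Endpoints by linear interpolation between flanking doses. Not reached: highest tested concentration assigned. GI50: concentration for 50% inhibition of growth.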 Active and inactive are the calls of the source. Cut-off read from the data, not from the text of the source: active = GI50 up to about 1.1 µM and inactive = higher.

Legend:
Assay in all cases: growth of human tumour cells (NCI), 48 h
RPMI-8226 = tested on: RPMI-8226
DMS-273 = tested on: DMS-273
CCRF-CEM = tested on: CCRF-CEM
HCC 2998 = tested on: HCC 2998
DMS-114 = tested on: DMS-114
SK-OV-3 = tested on: SK-OV-3
TK-10 = tested on: TK-10
A498 = tested on: A498
UACC-257 = tested on: UACC-257
786-0 = tested on: 786-0
LXFL 529 = tested on: LXFL 529
KM-20L2 = tested on: KM-20L2
IGROV-1 = tested on: IGROV-1
M19-MEL = tested on: M19-MEL
A549 = tested on: A549
HT-29 = tested on: HT-29
SR = tested on: SR
BT-549 = tested on: BT-549
NCI/ADR-RES = tested on: NCI/ADR-RES
MDA-N = tested on: MDA-N

Measured: GI50

CCn1c(=O)nc2n(-c3ccccc3)c3ccccc3nc-2c1=O
inactive: RPMI-8226 21.8 µM | DMS-273 12.7 µM | CCRF-CEM 21.1 µM | HCC 2998 21 µM | DMS-114 11.1 µM | SK-OV-3 > 100 µM | TK-10 > 100 µM | A498 47.4 µM | UACC-257 16.7 µM | 786-0 27.9 µM | LXFL 529 28.4 µM | KM-20L2 10 µM | IGROV-1 22.4 µM | M19-MEL 10.6 µM | A549 17.2 µM

O=C1C=CC=C/C1=C1/SC(c2ccccc2)=C(O)N1c1ccccc1
inactive: DMS-273 > 100 µM | HCC 2998 > 100 µM | HT-29 > 100 µM | DMS-114 > 100 µM | SK-OV-3 > 100 µM | TK-10 > 100 µM | UACC-257 > 100 µM | 786-0 > 100 µM | LXFL 529 > 100 µM | KM-20L2 > 100 µM | IGROV-1 > 100 µM | M19-MEL > 100 µM | A549 > 100 µM

CC(C)OP(=O)(OC(C)C)c1nn(-c2ccc([N+](=O)[O-])cc2)c(=N)s1
inactive: RPMI-8226 > 100 µM | CCRF-CEM > 100 µM | HCC 2998 65.5 µM | HT-29 > 100 µM | DMS-114 56.9 µM | SK-OV-3 > 100 µM | TK-10 > 100 µM | A498 > 100 µM | UACC-257 38.1 µM | KM-20L2 > 100 µM | IGROV-1 > 100 µM | M19-MEL > 100 µM | A549 > 100 µM

CC(C)(C)OC(=O)N1C2CCCC23O[C@@H]1c1cc2c(cc1C3=O)OCO2 (some centres undefined)
inactive: DMS-273 6.27 µM | CCRF-CEM 21.1 µM | HT-29 14.5 µM | DMS-114 19.9 µM | SR 32.1 µM | SK-OV-3 27.3 µM | TK-10 41 µM | A498 > 10 µM | UACC-257 52.8 µM | 786-0 34.5 µM | LXFL 529 44.3 µM | IGROV-1 20 µM | M19-MEL 26.6 µM | A549 29.4 µM

Cc1ccc(NC(=S)NNC(=O)c2cc(-c3ccccc3)nc3ccccc23)cc1C
inactive: RPMI-8226 24.3 µM | BT-549 18.7 µM | CCRF-CEM 27.5 µM | HCC 2998 18.8 µM | HT-29 23.7 µM | SR 14.6 µM | SK-OV-3 16.6 µM | NCI/ADR-RES 23 µM | TK-10 23.7 µM | A498 16.6 µM | UACC-257 26.4 µM | 786-0 16.3 µM | MDA-N 17.2 µM | IGROV-1 20 µM | A549 20.5 µM

C=CCNC(=O)N(CCC)CCCCC(NC(C)=O)C(=O)NCc1ccccc1 (centres undefined)
inactive: RPMI-8226 > 100 µM | DMS-273 > 100 µM | CCRF-CEM > 100 µM | HCC 2998 > 100 µM | HT-29 > 100 µM | DMS-114 > 100 µM | SK-OV-3 > 100 µM | TK-10 > 100 µM | A498 > 100 µM | UACC-257 > 100 µM | 786-0 > 100 µM | LXFL 529 > 100 µM | KM-20L2 > 100 µM | IGROV-1 > 100 µM | M19-MEL > 100 µM | A549 > 100 µM

CC1C(=O)N(c2ccccc2)NC12CCCc1ccccc12 (centres undefined)
inactive: RPMI-8226 > 100 µM | BT-549 > 100 µM | CCRF-CEM > 100 µM | HCC 2998 > 100 µM | HT-29 > 100 µM | SR > 100 µM | SK-OV-3 > 100 µM | NCI/ADR-RES > 100 µM | TK-10 > 100 µM | A498 > 100 µM | UACC-257 > 100 µM | MDA-N > 100 µM | IGROV-1 > 100 µM | A549 > 100 µM

O=C(O)c1ccc(NS(=O)(=O)Cc2ccccc2)cc1
inactive: RPMI-8226 > 100 µM | BT-549 > 100 µM | CCRF-CEM > 100 µM | HCC 2998 > 100 µM | HT-29 > 100 µM | SR > 100 µM | SK-OV-3 > 100 µM | NCI/ADR-RES > 100 µM | TK-10 > 100 µM | A498 > 100 µM | UACC-257 > 100 µM | 786-0 > 100 µM | MDA-N > 100 µM | IGROV-1 > 100 µM | A549 > 100 µM

CN(C)c1ccc(/C=C2/SC(=S)NC2=O)cc1
inactive: RPMI-8226 > 100 µM | BT-549 > 100 µM | CCRF-CEM > 100 µM | HCC 2998 > 100 µM | HT-29 > 100 µM | SR > 100 µM | SK-OV-3 29.1 µM | NCI/ADR-RES > 100 µM | TK-10 21.2 µM | A498 > 100 µM | UACC-257 > 100 µM | 786-0 > 100 µM | MDA-N > 100 µM | IGROV-1 > 100 µM | A549 > 100 µM

NC1CCCCC1
inactive: RPMI-8226 369 µM | DMS-273 189 µM | CCRF-CEM 260 µM | HCC 2998 310 µM | HT-29 199 µM | DMS-114 > 56.2 µM | NCI/ADR-RES > 562 µM | A498 > 562 µM | UACC-257 > 562 µM | KM-20L2 192 µM | IGROV-1 317 µM | M19-MEL 187 µM | A549 194 µM

COc1cc2ccc(CC(N)=O)cc2cc1OC
inactive: RPMI-8226 > 100 µM | DMS-273 > 100 µM | CCRF-CEM > 100 µM | HT-29 > 100 µM | DMS-114 > 100 µM | SK-OV-3 > 100 µM | TK-10 > 100 µM | UACC-257 > 100 µM | 786-0 > 100 µM | LXFL 529 > 100 µM | KM-20L2 > 100 µM | IGROV-1 > 100 µM | M19-MEL > 100 µM | A549 > 100 µM

CC12CCCCC1C(=O)C2(Cl)Cl (centres undefined)
inactive: RPMI-8226 1.31 µM | DMS-273 2.21 µM | CCRF-CEM 1.42 µM | HCC 2998 1.79 µM | HT-29 1.3 µM | TK-10 3.85 µM | A498 3.94 µM | UACC-257 2.06 µM | 786-0 1.83 µM | LXFL 529 2.28 µM | IGROV-1 2.96 µM | A549 3.18 µM

CC(=O)[C@H]1CCC2[C@@H]3CC=C4C(O)C(OS(=O)(=O)O)CC[C@]4(C)C3CC[C@@]21C (some centres undefined)
inactive: RPMI-8226 > 100 µM | DMS-273 > 100 µM | CCRF-CEM > 100 µM | HCC 2998 > 100 µM | HT-29 > 100 µM | DMS-114 > 100 µM | SK-OV-3 > 100 µM | NCI/ADR-RES > 100 µM | A498 > 100 µM | KM-20L2 > 100 µM | IGROV-1 > 100 µM | M19-MEL > 100 µM | A549 > 100 µM

CCN1CCC(O)(/C=C/c2ccc(C)cc2)C(C(=O)/C=C/c2ccc(C)cc2)C1 (centres undefined)
inactive: RPMI-8226 2.77 µM | BT-549 3.5 µM | CCRF-CEM 1.73 µM | HCC 2998 2.29 µM | HT-29 2.61 µM | SR 2.37 µM | SK-OV-3 15.6 µM | NCI/ADR-RES 2.61 µM | TK-10 5.45 µM | A498 10.3 µM | UACC-257 12.5 µM | 786-0 2.08 µM | MDA-N 3.18 µM | IGROV-1 6.55 µM | A549 8.24 µM

COCCO [2-METHOXYETHANOL]
inactive: RPMI-8226 > 100 µM | HCC 2998 > 100 µM | HT-29 > 100 µM | SK-OV-3 > 100 µM | NCI/ADR-RES > 100 µM | A498 > 100 µM | UACC-257 > 100 µM | KM-20L2 > 100 µM | IGROV-1 > 100 µM | A549 > 100 µM

CC(=O)N/C(=C\c1ccc(Cc2nc3c([nH]2)C(=O)c2ccccc2C3=O)cc1)c1nc2c([nH]1)C(=O)c1ccccc1C2=O
inactive: RPMI-8226 > 100 µM | CCRF-CEM > 100 µM | HCC 2998 > 100 µM | HT-29 > 100 µM | DMS-114 > 100 µM | SK-OV-3 > 100 µM | TK-10 78.9 µM | A498 > 100 µM | UACC-257 > 100 µM | 786-0 > 100 µM | LXFL 529 > 100 µM | KM-20L2 > 100 µM | IGROV-1 > 100 µM | M19-MEL > 100 µM | A549 > 100 µM

COc1ccccc1C(=O)NCC1CCCN2CCCCC12 (centres undefined)
inactive: RPMI-8226 > 100 µM | BT-549 > 100 µM | CCRF-CEM > 100 µM | HCC 2998 > 100 µM | HT-29 > 100 µM | SR > 100 µM | SK-OV-3 > 100 µM | NCI/ADR-RES > 100 µM | TK-10 > 100 µM | A498 > 100 µM | UACC-257 > 100 µM | 786-0 > 100 µM | MDA-N > 100 µM | IGROV-1 > 100 µM | A549 93.3 µM

CCC(=O)N/S(=N/S(=O)(=O)c1ccccc1)C(Cl)(Cl)Cl (centres undefined)
inactive: RPMI-8226 > 100 µM | BT-549 > 100 µM | CCRF-CEM > 100 µM | HCC 2998 > 100 µM | HT-29 > 100 µM | SR > 100 µM | SK-OV-3 > 100 µM | NCI/ADR-RES > 100 µM | TK-10 > 100 µM | A498 > 100 µM | UACC-257 > 100 µM | 786-0 > 100 µM | MDA-N > 100 µM | IGROV-1 > 100 µM | A549 > 100 µM

CCN(CC)C(=O)c1cc(OC(C)C)ccc1-c1c(C)cc(OC(C)C)c(OC)c1OC
inactive: RPMI-8226 24.2 µM | DMS-273 41.6 µM | CCRF-CEM 34 µM | HCC 2998 46.3 µM | HT-29 38 µM | DMS-114 36.5 µM | SR 33.6 µM | SK-OV-3 > 100 µM | TK-10 > 100 µM | KM-20L2 74 µM | IGROV-1 > 100 µM | A549 48.6 µM
